Experimental data from patent publication US9156856B2, “Apoptosis-inducing agents for the treatment of cancer and immune and autoimmune diseases” (AbbVie Inc., priority 2009, dated 2015).

The compounds below were run against Bcl-2 (Homo sapiens (Human), UniProt P10415) (assay: Time Resolved-Fluorescence Resonance Energy Transfer (TR-FRET) Bcl-2 binding assay with F-Bak peptide probe). Conditions: GST-Bcl-2 1 nM, F-Bak peptide probe 100 nM, Tb-anti-GST antibody 1 nM; Ki by Wang's equation.
Procedure: Determination of the utility of compounds having Formula (I) as binders to and inhibitors of anti-apoptotic Bcl-2 proteins was performed using the Time Resolved-Fluorescence Resonance Energy Transfer (TR-FRET) Assay. Tb-anti-GST antibody was purchased from Invitrogen (Catalog No. PV4216).
Representative compounds were serially diluted in dimethyl sulfoxide (DMSO) starting at 50 μM (2× starting concentration; 10% DMSO) and 10 μL were transferred into a 384-well plate. The samples are then mixed on a shaker for 1 minute and incubated for an additional 3 hours at room temperature. For each assay, the probe/antibody and protein/probe/antibody were included on each assay plate as negative and positive controls, respectively. Fluorescence was measured on the ENVISION plate reader (Perkin Elmer) using a 340/35 nm excitation filter and 520/525 (F-Bak peptide) and 495/510 nm (Tb-labeled […] antibody) emission filters Inhibition constants (Ki) are shown in TABLE 2 below and were determined using Wang's equation (Wang Z.-X. An Exact Mathematical Expression For Describing Competitive Binding Of Two Different Ligands To A Protein Molecule. FEBS Lett. 1995, 360:111-4).
The inhibition constant (Ki) is the dissociation constant of an enzyme-inhibitor complex or a protein/small molecule complex, wherein the small molecule is inhibiting binding of one protein to another protein. So a large K, value indicates a low binding affinity and a small Ki value indicates a high binding affinity.
The compounds are therefore expected to have utility in treatment of diseases during which anti-apoptotic Bcl-2 protein is expressed.

Sequence of Bcl-2 (P10415 whole entry): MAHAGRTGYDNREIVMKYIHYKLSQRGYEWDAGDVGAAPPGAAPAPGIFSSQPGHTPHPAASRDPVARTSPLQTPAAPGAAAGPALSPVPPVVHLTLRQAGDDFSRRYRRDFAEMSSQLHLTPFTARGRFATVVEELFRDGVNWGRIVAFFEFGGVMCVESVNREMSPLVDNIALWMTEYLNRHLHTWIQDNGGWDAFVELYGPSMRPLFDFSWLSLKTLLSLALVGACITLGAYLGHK

Point of comparison: Cc1c(S(=O)(=O)NC(=O)c2ccc(N3CCN(Cc4ccccc4-c4ccc(Cl)cc4)CC3)cc2Oc2ccccc2)sc2ccc(Cl)cc12 [Example 39, 4-{4-[(4′-chloro-1,1′-biphenyl-2-yl)methyl]piperazin-1-yl}-N-[(5-chloro-3-methyl-1-benzothien-2-yl)sulfonyl]-2-phenoxybenzamide], Ki 20.2 nM. Against it:
- Cc1cc(C)n2nc(S(=O)(=O)NC(=O)c3ccc(N4CCN(CC5=C(c6ccc(Cl)cc6)CC(C)(C)CC5)CC4)cc3Oc3cccc(Cl)c3)nc2n1 [Example 40, 2-(3-chlorophenoxy)-4-(4-{[2-(4-chlorophenyl)-4,4-dimethylcyclohex-1-en-1-yl]methyl}piperazin-1-yl)-N-[(5,7-dimethyl[1,2,4]triazolo[1,5-a]pyrimidin-2-yl)sulfonyl]benzamide] — 50-fold lower, 0.407 nM
- Cc1cc(C)n2nc(S(=O)(=O)NC(=O)c3ccc(N4CCN(CC5=C(c6ccc(Cl)cc6)CC(C)(C)CC5)CC4)cc3Oc3cc4cc[nH]c4cc3F)nc2n1 [Example 41, 4-(4-{[2-(4-chlorophenyl)-4,4-dimethylcyclohex-1-en-1-yl]methyl}piperazin-1-yl)-N-[(5,7-dimethyl[1,2,4]triazolo[1,5-a]pyrimidin-2-yl)sulfonyl]-2-[(6-fluoro-1H-indol-5-yl)oxy]benzamide] — 380-fold lower, 0.053 nM
- Cc1cc(C)n2nc(S(=O)(=O)NC(=O)c3ccc(N4CCN(CC5=C(c6ccc(Cl)cc6)CC(C)(C)CC5)CC4)cc3Oc3cc4cc[nH]c4c(F)c3F)nc2n1 [Example 42, 4-(4-{[2-(4-chlorophenyl)-4,4-dimethylcyclohex-1-en-1-yl]methyl}piperazin-1-yl)-2-[(6,7-difluoro-1H-indol-5-yl)oxy]-N-[(5,7-dimethyl[1,2,4]triazolo[1,5-a]pyrimidin-2-yl)sulfonyl]benzamide] — 520-fold lower, 0.039 nM
- Cc1nc(OC[C@@H]2CN(C(=O)OC(C)(C)C)CCO2)sc1S(=O)(=O)NC(=O)c1ccc(N2CCN(CC3=C(c4ccc(Cl)cc4)CC(C)(C)CC3)CC2)cc1Oc1cnc2[nH]ccc2c1 [Example 43, tert-butyl (2S)-2-{[(5-{[4-(4-{[2-(4-chlorophenyl)-4,4-dimethylcyclohex-1-en-1-yl]methyl}piperazin-1-yl)-2-(1H-pyrrolo[2,3-b]pyridin-5-yloxy)benzoyl]sulfamoyl}-4-methyl-1,3-thiazol-2-yl)oxy]methyl}morpholine-4-carboxylate] — 2.3-fold higher, 46.5 nM
- Cc1nc(OC[C@@H]2CN(C(=O)OC(C)(C)C)CCO2)sc1S(=O)(=O)NC(=O)c1ccc(N2CCN(CC3=C(c4ccc(Cl)cc4)CC(C)(C)CC3)CC2)cc1Oc1cccc2[nH]cnc12 [Example 44, tert-butyl (2S)-2-{[(5-{[2-(1H-benzimidazol-4-yloxy)-4-(4-{[2-(4-chlorophenyl)-4,4-dimethylcyclohex-1-en-1-yl]methyl}piperazin-1-yl)benzoyl]sulfamoyl}-4-methyl-1,3-thiazol-2-yl)oxy]methyl}morpholine-4-carboxylate] — within 1.5-fold, 24.8 nM
- Cc1nc(OCC2(F)CCOCC2)sc1S(=O)(=O)NC(=O)c1ccc(N2CCN(CC3=C(c4ccc(Cl)cc4)CC(C)(C)CC3)CC2)cc1Oc1cnc2[nH]ccc2c1 [Example 45, 4-(4-{[2-(4-chlorophenyl)-4,4-dimethylcyclohex-1-en-1-yl]methyl}piperazin-1-yl)-N-({2-[(4-fluorotetrahydro-2H-pyran-4-yl)methoxy]-4-methyl-1,3-thiazol-5-yl}sulfonyl)-2-(1H-pyrrolo[2,3-b]pyridin-5-yloxy)benzamide] — 3-fold lower, 6.73 nM
- Cc1nc(OCC2(F)CCOCC2)sc1S(=O)(=O)NC(=O)c1ccc(N2CCN(CC3=C(c4ccc(Cl)cc4)CC(C)(C)CC3)CC2)cc1Oc1cccc2[nH]cnc12 [Example 46, 2-(1H-benzimidazol-4-yloxy)-4-(4-{[2-(4-chlorophenyl)-4,4-dimethylcyclohex-1-en-1-yl]methyl}piperazin-1-yl)-N-({2-[(4-fluorotetrahydro-2H-pyran-4-yl)methoxy]-4-methyl-1,3-thiazol-5-yl}sulfonyl)benzamide] — 12-fold lower, 1.75 nM
- Cc1nc(OC[C@@H]2CN(C(=O)OC(C)(C)C)CCO2)sc1S(=O)(=O)NC(=O)c1ccc(N2CCN(CC3=C(c4ccc(Cl)cc4)CC(C)(C)CC3)CC2)cc1Oc1cccc2[nH]ncc12 [Example 47, (S)-tert-butyl 2-((5-(N-(2-(1H-indazol-4-yloxy)-4-(4-((2-(4-chlorophenyl)-4,4-dimethylcyclohex-1-enyl)methyl)piperazin-1-yl)benzoyl)sulfamoyl)-4-methylthiazol-2-yloxy)methyl)morpholine-4-carboxylate] — within 1.5-fold, 20.4 nM
- Cc1nc(OCC2(F)CCOCC2)sc1S(=O)(=O)NC(=O)c1ccc(N2CCN(CC3=C(c4ccc(Cl)cc4)CC(C)(C)CC3)CC2)cc1Oc1cccc2[nH]ncc12 [Example 48, 2-(1H-indazol-4-yloxy)-4-(4-((2-(4-chlorophenyl)-4,4-dimethylcyclohex-1-enyl)methyl)piperazin-1-yl)-N-(2-((4-fluorotetrahydro-2H-pyran-4-yl)methoxy)-4-methylthiazol-5-ylsulfonyl)benzamide] — 12-fold lower, 1.64 nM
